Measurements from the supplement of paper PMC8671470.

Tests used:
Conditions in all cases: 72 h
HL-60 [1] = experiment: cell viability (% survival relative to DMSO control); higher = less cytotoxic
Outline: (§1)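 In 384-well plates, the full library was rescreened in duplicate on HL-60 cells in RPMI 1640 with 10% FBS, at 1–10,000 nM in five tenfold concentrations, for 72 h at 37 °C, 5% CO2. Each run also held DMSO or 100 nM of one of three metabolic inhibitors. Viability was measured by CellTiter-Glo and normalised to DMSO wells and to wells with proteasome inhibitor, present at 10 μM. Any area under the curve comes from four-parameter log-logistic fitting with drc and PharmacoGx.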

HL-60 [2] = experiment: area under dose-response curve (viability, 1 nM-10 uM) (fraction (0-1)); higher = more sensitive
Outline: as §1

[3] = test system: myeloid leukemia patient primary cells Pat.3; experiment: cell viability (% survival relative to DMSO control); higher = less cytotoxic
Outline: (§2)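 Mononuclear cells from patients with AML or CML were thawed, purified on Ficoll and placed in RPMI 1640 with 10% FBS at 10,000 cells/well on 384-well plates. The plates came pre-printed with 70 compounds at five tenfold concentrations spanning 1–10,000 nM, in duplicate, and cells were exposed for 72 h. CellTiter-Glo gave viability, scaled between DMSO wells and wells with 10 μM proteasome inhibitor. Where reported, area under the curve was obtained from log-logistic fits with four parameters using the drc and PharmacoGx R packages.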

[4] = test system: myeloid leukemia patient primary cells Pat.13; experiment: as above
Outline: as §2

[5] = test system: myeloid leukemia patient primary cells Pat.8; experiment: as above
Outline: as §2

[6] = test system: myeloid leukemia patient primary cells Pat.5; experiment: as above
Outline: as §2

[7] = test system: myeloid leukemia patient primary cells Pat.7; experiment: as above
Outline: as §2

[8] = test system: myeloid leukemia patient primary cells Pat.9; experiment: as above
Outline: as §2

[9] = test system: myeloid leukemia patient primary cells Pat.3; experiment: area under dose-response curve (viability, 1 nM-10 uM) (fraction (0-1)); higher = more sensitive
Description: (§3)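 AUC (0–1, higher = more sensitive) of the 5-point dose–response (1 nM–10 µM, 72 h, CellTiter-Glo) in primary AML/CML patient mononuclear cells. 0.030103 is the floor for inactive compounds.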

[10] = test system: myeloid leukemia patient primary cells Pat.15; experiment: as above
Description: as §3

[11] = test system: myeloid leukemia patient primary cells Pat.4; experiment: as above
Description: as §3

[12] = test system: myeloid leukemia patient primary cells Pat.13; experiment: as above
Description: as §3

[13] = test system: myeloid leukemia patient primary cells Pat.8; experiment: as above
Description: as §3

[14] = test system: myeloid leukemia patient primary cells Pat.5; experiment: as above
Description: as §3

[15] = test system: myeloid leukemia patient primary cells Pat.11; experiment: as above
Description: as §3

[16] = test system: myeloid leukemia patient primary cells Pat.1; experiment: as above
Description: as §3

[17] = test system: myeloid leukemia patient primary cells Pat.6; experiment: as above
Description: as §3

[18] = test system: myeloid leukemia patient primary cells Pat.14; experiment: as above
Description: as §3

[19] = test system: myeloid leukemia patient primary cells Pat.2; experiment: as above
Description: as §3

[20] = test system: myeloid leukemia patient primary cells Pat.10; experiment: as above
Description: as §3

[21] = test system: myeloid leukemia patient primary cells Pat.12; experiment: as above
Description: as §3

[22] = test system: myeloid leukemia patient primary cells Pat.7; experiment: as above
Description: as §3

[23] = test system: myeloid leukemia patient primary cells Pat.9; experiment: as above
Description: as §3

Oc1ncc(F)c(O)n1 [5-fluorouracil]
cell viability [%], HL-60 [1]
Conditions	0.001 µM	0.01 µM	0.1 µM	1 µM	10 µM
co-treatment: AZD3965 100 nM	97.8	98.3	102	102.9	55
co-treatment: DMSO vehicle	101.99	97.89	98.8	102	76.1
co-treatment: GSK2194069 100 nM	99.6	104	99	100	75.9
co-treatment: pictilisib 100 nM	102	75.9	113	96.5	68.7

Conditions	area under dose-response curve, co-treatment: AZD3965 100 nM	area under dose-response curve, co-treatment: DMSO vehicle	area under dose-response curve, co-treatment: GSK2194069 100 nM	area under dose-response curve, co-treatment: pictilisib 100 nM	cell viability, 1 nM [%]	cell viability, 10 nM [%]	cell viability, 100 nM [%]	cell viability, 1000 nM [%]	cell viability, 10000 nM [%]
HL-60 [2]	< 0.0301	< 0.0301	< 0.0301	< 0.0301	–	–	–	–	–
[3]	–	–	–	–	90.4	96.5	94.5	96.6	41.9
[4]	–	–	–	–	88.8	91.2	90	72.7	81
[5]	–	–	–	–	85.8	86.3	94.5	80.1	98.7
[6]	–	–	–	–	88.1	90.3	84.7	61.3	13.9
[7]	–	–	–	–	89.7	83.9	82.8	92.8	50.8
[8]	–	–	–	–	76.6	52.3	92.6	71.4	45.4

Conditions	area under dose-response curve
[9]	0.0441
[10]	< 0.0301
[11]	0.0407
[12]	< 0.0301
[13]	< 0.0301
[14]	0.188
[15]	< 0.0301
[16]	< 0.0301
[17]	< 0.0301
[18]	< 0.0301
[19]	< 0.0301
[20]	0.0668
[21]	< 0.0301
[22]	0.0322
[23]	0.0717

NS(=O)(=O)c1ccc(S(=O)(=O)Nc2cccc3c(Cl)c[nH]c23)cc1 [Indisulam]
cell viability [%], HL-60 [1]
Conditions	0.001 µM	0.01 µM	0.1 µM	1 µM	10 µM
co-treatment: AZD3965 100 nM	97.4	97.92	98.8	110	89.8
co-treatment: DMSO vehicle	96.4	95	101	104	92.2
co-treatment: GSK2194069 100 nM	101	101	100	105	90.9
co-treatment: pictilisib 100 nM	110	95.2	104	112.7	77.3

Conditions	area under dose-response curve, co-treatment: AZD3965 100 nM	area under dose-response curve, co-treatment: DMSO vehicle	area under dose-response curve, co-treatment: GSK2194069 100 nM	area under dose-response curve, co-treatment: pictilisib 100 nM	cell viability, 1 nM [%]	cell viability, 10 nM [%]	cell viability, 100 nM [%]	cell viability, 1000 nM [%]	cell viability, 10000 nM [%]
HL-60 [2]	< 0.0301	< 0.0301	< 0.0301	< 0.0301	–	–	–	–	–
[3]	–	–	–	–	84.5	> 100	> 100	72.9	34.2
[4]	–	–	–	–	92.6	91.3	98	57.4	44.8
[5]	–	–	–	–	89.9	91.6	97.5	79.2	55.5
[6]	–	–	–	–	47.7	70.8	62.1	17.9	12.4
[7]	–	–	–	–	93.3	77.1	91.3	43.1	21.2
[8]	–	–	–	–	47.8	84	81.1	40.9	24.6

Conditions	area under dose-response curve
[9]	0.137
[10]	0.0789
[11]	0.29
[12]	0.167
[13]	0.0654
[14]	0.379
[16]	0.128
[19]	< 0.0301
[20]	< 0.0301
[21]	< 0.0301
[22]	0.228
[23]	0.227

Cc1nnc(-c2ccc(N3CCC(Oc4ccccc4C(F)(F)F)CC3)nn2)s1 [MF-438]
cell viability [%], HL-60 [1]
Conditions	0.001 µM	0.01 µM	0.1 µM	1 µM	10 µM
co-treatment: AZD3965 100 nM	88.9	99.9	104	101	89.8
co-treatment: DMSO vehicle	101	101.6	102	100	94.9
co-treatment: GSK2194069 100 nM	92.9	104	93.3	101	86.5
co-treatment: pictilisib 100 nM	109	106	100	94.07	98.1

Conditions	area under dose-response curve, co-treatment: AZD3965 100 nM	area under dose-response curve, co-treatment: DMSO vehicle	area under dose-response curve, co-treatment: GSK2194069 100 nM	area under dose-response curve, co-treatment: pictilisib 100 nM	cell viability, 1 nM [%]	cell viability, 10 nM [%]	cell viability, 100 nM [%]	cell viability, 1000 nM [%]	cell viability, 10000 nM [%]
HL-60 [2]	< 0.0301	< 0.0301	< 0.0301	< 0.0301	–	–	–	–	–
[3]	–	–	–	–	76.3	77.5	72.9	61.3	74.1
[4]	–	–	–	–	86.8	86.4	86.9	80.8	97.4
[5]	–	–	–	–	86.9	94.5	77.7	86.9	94.9
[6]	–	–	–	–	32.8	93.8	67.7	46.4	27.4
[7]	–	–	–	–	> 100	93.3	99.7	74.4	41.2
[8]	–	–	–	–	56.2	91.2	87.2	69.3	75.2

Conditions	area under dose-response curve
[12]	< 0.0301
[13]	< 0.0301
[14]	0.232
[15]	< 0.0301
[16]	< 0.0301
[17]	< 0.0301
[18]	< 0.0301
[19]	< 0.0301
[20]	< 0.0301
[21]	< 0.0301
[22]	0.128
[23]	< 0.0301
